From patent publication US20040058909A1, “Method of treatment” (priority 2003, published 2004)

Experiments:
[1] = system: patients suffering from Parkinson's Disease; details: patients with Parkinson's Disease treated for psychoses; cited from earlier work
[2] = system: cynomolgus monkeys exposed to 1-methyl-4-phenyl-1,2,3,6-tetrahydropyridine (MPTP)
Procedure: Quetiapine may be administered to cynomolgus monkeys exposed to 1-methyl-4-phenyl-1,2,3,6-tetrahydropyridine (MPTP) and which therefore have MPTP-induced Parkinson's Disease. Such monkeys are described by Blanchet et al., Experimental Neurology, 153, 214-222 (1998).
The monkeys are assessed according to the Laval University Disability Scale for MPTP monkeys with the following motor and behavioural parameters scored: posture (normal, flexed, crouched); mobility (normal, passive); climbing (present, absent); gait (normal, abnormal); tremor (present, absent); holding food (present, absent); vocalising (present, absent); grooming (present, absent); and social interaction (present, absent).
Quetiapine may be administered at various dosage values, either alone or with varying dosages of levodopa, and scoring is carried out at regular intervals.
Quetiapine was administered subcutaneously to 8 cynomolgus monkeys at doses of 2 mg/Kg and 4 mg/Kg.

**Q.** With OCCOCCN1CCN(C2=Nc3ccccc3Sc3ccccc32)CC1 [Quetiapine, 11-(4-[2-(2-hydroxyethoxy)ethyl]-l-piperazinyl)dibenzo[b,f] [1.4]-thiazepine] as the compound, how does the “exacerbation of extra-pyramidal symptoms” value [1] read?
**A.** no exacerbation of extra-pyramidal symptoms

**Q.** What about the “levodopa effect on Parkinson's Disease symptoms” value ([2]; quetiapine 2 mg/Kg and 4 mg/Kg subcutaneously with levodopa) of the same compound?
**A.** unchanged

**Q.** And the “reduction of levodopa-induced dyskinesias, compared with the 4 mg/Kg dose” value ([2]; quetiapine 2 mg/Kg subcutaneously, 8 cynomolgus monkeys)?
**A.** less effective

**Q.** What about the “reduction of maximum levodopa-induced dyskinesias” value ([2]; quetiapine 4 mg/Kg subcutaneously, levodopa dose sufficient to produce maximum dyskinesias, 8 cynomolgus monkeys) of the same compound?
**A.** 41%

**Q.** What about the “reduction of moderate levodopa-induced dyskinesias” value ([2]; quetiapine 4 mg/Kg subcutaneously, levodopa dose sufficient to produce moderate dyskinesias, 8 cynomolgus monkeys) of the same compound?
**A.** 57%
